Reference: paper PMC4698308, “A new amino acid substitution (Ala-205-Phe) in acetolactate synthase (ALS) confers broad spectrum resistance to ALS-inhibiting herbicides” (Planta, 2015)

How the values were obtained:
[1] = system: recombinant Arabidopsis thaliana ALS variant A205V; assay type: biochemical; conditions: IC50 mutant divided by IC50 sensitive ALS; max inhibitor concentration 1.00 × 10^−04 M
Summary of the method: (§1)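 His-tagged enzymes lacking the 85-residue N-terminal transit peptide, expressed and purified. Herbicides in DMSO added; reaction 60 min at 30 °C, stopped with H2SO4, acetolactate converted to acetoin at 56 °C for 15 min.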

[2] = system: recombinant Arabidopsis thaliana ALS variant W574L; assay type: biochemical; conditions: IC50 mutant divided by IC50 sensitive ALS; max inhibitor concentration 1.00 × 10^−04 M
Summary of the method: as §1

[3] = system: recombinant Arabidopsis thaliana ALS variant A205F; assay type: biochemical; conditions: IC50 mutant divided by IC50 sensitive ALS; max inhibitor concentration 1.00 × 10^−04 M
Summary of the method: as §1

[4] = system: annual bluegrass (Poa annua L.); assay: Whole plant non-target site resistance experiment with P450 inhibitors malathion or PBO (control 21 days after treatment); assay type: in vivo; conditions: for Annual bluegrass control S: susceptible (S)
[5] = system: annual bluegrass (Poa annua L.); assay: Whole plant non-target site resistance experiment, foramsulfuron vs sulfometuron (control and plant height 28 days after treatment); assay type: in vivo
Procedure: A second experiment was conducted to determine if non-target mechanisms could confer resistance to ALS inhibiting herbicides in our annual bluegrass population, POAAN-R3. ALS-resistant (RP1–RP8) and susceptible (S) plants were cultured in plastic conical containers under previously described glasshouse conditions for 28 days before being treated with foramsulfuron (29 g ha^−1) or sulfometuron-methyl (Oust XP; Dupont Professional Products. Wilmington, DE, USA) at 105 g ai ha^−1. Sulfometuron-methyl is an ALS inhibiting herbicide not metabolized by cytochrome P450 monooxygenases; therefore, it can be used to discern if weed populations survive ALS inhibiting herbicide treatment via target- or non-target site based mechanisms (Christopher et al. [1992]). Per label recommendations, sulfometuron-methyl included non-ionic surfactant at 0.25 % v/v. Treatments were mixed in water carrier applied in an enclosed spray chamber, as previously described, on 13 March 2015.
Annual bluegrass control was visually assessed on a 0 (i.e., no control) to 100 % (i.e., complete kill) scale relative to the non-treated 28 days after treatment. After all control data had been collected, plant height data were collected using a ruler placed at the soil surface of each plastic conical container and recording the distance to the tip of the bud leaf. Treatments were arranged as a 9 × 3 factorial with nine plant selections (RP1–RP8, S) and three herbicides (foramsulfuron, sulfometuron-methyl, non-treated) in a completely randomized design with four replications and repeated in separate glasshouses during March 2015.

Structure (SMILES): COc1cc(OC)nc(NC(=O)NS(=O)(=O)c2cc(NC=O)ccc2C(=O)N(C)C)n1 [Foramsulfuron]
- Resistance factor A205V [1]: 12
- Resistance factor W574L [2]: 2013
- Resistance factor A205F [3]: 5160
- Annual bluegrass control RP6 ([4]; RP6, herbicide alone, foramsulfuron 29, trifloxysulfuron 27.8, imazaquin 27.5, bispyribac-sodium 70 g ha^−1): 58%
- Annual bluegrass control RP6 ([4]; RP6, herbicide with PBO 2100 g ha^−1 applied 60 min prior): 31%
- Annual bluegrass control RP6 ([4]; RP6, herbicide with malathion 1000 g ha^−1 applied 60 min prior): 24%
- Annual bluegrass control RP7 ([4]; RP7, herbicide alone, foramsulfuron 29, trifloxysulfuron 27.8, imazaquin 27.5, bispyribac-sodium 70 g ha^−1): 28%
- Annual bluegrass control RP7 ([4]; RP7, herbicide with PBO 2100 g ha^−1 applied 60 min prior): 24%
- Annual bluegrass control RP7 ([4]; RP7, herbicide with malathion 1000 g ha^−1 applied 60 min prior): 22%
- Annual bluegrass control S ([4]; herbicide alone, foramsulfuron 29, trifloxysulfuron 27.8, imazaquin 27.5, bispyribac-sodium 70 g ha^−1): 91%
- Annual bluegrass control S ([4]; herbicide with PBO 2100 g ha^−1 applied 60 min prior): 95%
- Annual bluegrass control S ([4]; herbicide with malathion 1000 g ha^−1 applied 60 min prior): 96%
- Annual bluegrass control RP1 ([5]; RP1, 28 days after treatment, minimum of two tillers, foramsulfuron 29, sulfometuron 105 g ha^−1): 8%
- Annual bluegrass height RP1 ([5]; RP1, plant height 28 days after treatment, foramsulfuron 29, sulfometuron 105 g ha^-1, non-treated 118 mm): 77 mm
- Annual bluegrass control RP2 ([5]; RP2, 28 days after treatment, minimum of two tillers, foramsulfuron 29, sulfometuron 105 g ha^−1): 2%
- Annual bluegrass height RP2 ([5]; RP2, plant height 28 days after treatment, foramsulfuron 29, sulfometuron 105 g ha^-1, non-treated 129 mm): 74 mm
- Annual bluegrass control RP3 ([5]; RP3, 28 days after treatment, minimum of two tillers, foramsulfuron 29, sulfometuron 105 g ha^−1): 5%
- Annual bluegrass height RP3 ([5]; RP3, plant height 28 days after treatment, foramsulfuron 29, sulfometuron 105 g ha^-1, non-treated 173 mm): 100 mm
- Annual bluegrass control RP4 ([5]; RP4, 28 days after treatment, minimum of two tillers, foramsulfuron 29, sulfometuron 105 g ha^−1): 11%
- Annual bluegrass height RP4 ([5]; RP4, plant height 28 days after treatment, foramsulfuron 29, sulfometuron 105 g ha^-1, non-treated 140 mm): 85 mm
- Annual bluegrass control RP5 ([5]; RP5, 28 days after treatment, minimum of two tillers, foramsulfuron 29, sulfometuron 105 g ha^−1): 8%
- Annual bluegrass height RP5 ([5]; RP5, plant height 28 days after treatment, foramsulfuron 29, sulfometuron 105 g ha^-1, non-treated 114 mm): 75 mm
- Annual bluegrass control RP6 ([5]; RP6, 28 days after treatment, minimum of two tillers, foramsulfuron 29, sulfometuron 105 g ha^−1): 46%
- Annual bluegrass height RP6 ([5]; RP6, plant height 28 days after treatment, foramsulfuron 29, sulfometuron 105 g ha^-1, non-treated 106 mm): 68 mm
- Annual bluegrass control RP7 ([5]; RP7, 28 days after treatment, minimum of two tillers, foramsulfuron 29, sulfometuron 105 g ha^−1): 5%
- Annual bluegrass height RP7 ([5]; RP7, plant height 28 days after treatment, foramsulfuron 29, sulfometuron 105 g ha^-1, non-treated 125 mm): 75 mm
- Annual bluegrass control RP8 ([5]; RP8, 28 days after treatment, minimum of two tillers, foramsulfuron 29, sulfometuron 105 g ha^−1): 3%
- Annual bluegrass height RP8 ([5]; RP8, plant height 28 days after treatment, foramsulfuron 29, sulfometuron 105 g ha^-1, non-treated 132 mm): 94 mm
- Annual bluegrass control S ([5]; susceptible (S), 28 days after treatment, minimum of two tillers, foramsulfuron 29, sulfometuron 105 g ha^−1): 93%
- Annual bluegrass height S ([5]; susceptible (S), plant height 28 days after treatment, foramsulfuron 29, sulfometuron 105 g ha^-1, non-treated 111 mm): 18 mm
